Measurements: patent US20250186423A1, “METHODS OF TREATING CANCER AND OTHER CONDITIONS WITH A MU OPIOID RECEPTOR ANTAGONIST” (priority 2022, published 2025)

Key:
[1] = test system: Mouse colon cancer (MC38) cells; experiment: Syngeneic mouse colon cancer model; type: in vivo, mice (C57BL6)
Method: The syngeneic mouse model assay (FIG. 3B) allows a complete system where tumor progression is quantified in the presence of endogenous immune surveillance and an active gut microbiome.
Mouse colon cancer (MC38) cells were amplified in vitro prior to implantation. On the day of injection, cells were harvested, counted including a trypan blue viability dye (cut-off 80%), and resuspended in PBS at the appropriate concentration. The cells were injected subcutaneously in the right flank of Female mice (C57BL6), 5 weeks of age (18-22 gm body weight) at 5.106 cells/mouse in 200 μL PBS within 30 minutes after harvesting. After 15-18 days of tumor growth, mice were randomized into treatment groups at 10 animals/group. Animals were weighed thrice weekly and tumor growth measured using callipers. The tumour volume (TV) was extrapolated to a sphere using the formula shown below: […]
by calculating the mean radius from the two measurements.
The results of these studies are shown in FIG. 12A, 12B, 13 as well as Table 2-3. The tumor growth curves in animals treated with the MOR antagonist, axelopran, mouse anti-PD-1 or a combination of both treatments are shown in FIGS. 12A and 12B. FIG. 12A and FIG. 12B show MC38 colon cancer tumor growth in syngeneic mice treated with Vehicle (Control), axelopran (1 mg/kg, p.o. daily), mouse anti-PD-1 (12.5 mg/kg i.p.,3×-weekly) or axelopran plus anti-PD-1.

[2] = test system: MDA-MB-231 tumor cell line; experiment: Breast cancer tumor progression in the CAM assay; type: in vivo, chicken
Method: The chicken egg chorioallantoic membrane assay (FIG. 3B) allows for the study of tumor progression of injected tumor cells in the presence of active endogenous immune surveillance, but again in the absence of an active gut microbiome.
Breast cancer cell tumor progression was assessed in the chicken egg, chorioallantoic membrane assay. The experimental timing is shown below in FIG. 9. Fertilized chicken eggs were incubated for 9 days. The MDA-MB-231 tumor cell line was cultivated in D-MEM medium supplemented with 10% FBS and 1% penicillin/streptomycin. On day E9, cells were detached with trypsin, washed with complete medium and suspended in graft medium. An inoculum of 1×10^6 cells was added onto the CAM of each egg (E9) and then eggs were randomized into groups. Tumor cells (breast cancer MDA-MB231 cells (10^6)) were then seeded on the upper CAM and further incubated for 3 three days. Test agents were then added to the same site at selected concentrations. Following five days of further incubation the growing tumor was excised, freed of CAM tissue, and weighed.
For this testing, the chicken eggs were treated with: axelopran; pembrolizumab (Pembro); axelopran+pembrolizumab; bevacizumab (Beva); axelopran+bevacizumab; pembrolizumab+bevacizumab; and axelopran+pembrolizumab+bevacizumab. Axelopran was used at dose of 1.0 mg/kg; pembrolizumab was used at a dose of 2.5 mg/kg; and bevacizumab was used at a dose of 4 mg/kg. The results of this testing are shown in FIG. 10A, 10B, 11 and Table 2-2.

[3] = test system: Human umbilical vein endothelial cells (HUVEC); experiment: HUVEC cell tube formation; type: cell-based; conditions: 0-1000 nM, 18 hours, absence of exogenous opioids
Method: Two independent model systems were used to explore the role of MOR and endogenous opioids on angiogenesis. Human umbilical vein endothelial cells (HUVEC) in culture initiate angiogenesis through tube formation when cultured on an appropriate extracellular matrix. In a living system, the chicken egg chorioallantoic membrane assay (CAM) allows direct visualization of new blood vessel formation.
Specifically, the HUVEC cell tube formation was assessed in the presence of various doses (0-1000 nM) of three different Mu opioid receptor antagonists (axelopran, naloxegol, and methylnaltrexone (MNTX)). For this testing, the HUVEC cells were exposed to the various MOR antagonist concentrations and incubated under the following conditions: Briefly, 50 μL of Matrigel in 96 well plates was loaded to make one layer of extracellular matrix. The plate was kept for 1 hour at 37° C. HUVEC cells were seeded on top of Matrigel (0.02×10^6 cells/well) and waited for 4 h to form tube formation. […] Once tubes formed, cells were treated with increasing amounts of the test compounds (axelopran, naloxegol, and MNTX) and incubated for 18 hours. Cells were stained with Calcein AM and images were captured. The data analysis was performed using NIH imageJ software. Tube length was measure and data was plotted using prism software.

[4] = absence of exogenous opioids, breast cancer

NC(=O)c1cccc(C2CC3CCC(C2)N3CCN(CC2CCCCC2)C(=O)[C@@H](O)CO)c1 (stereo partly drawn) [axelopran, 3-[(1R,3r,5S)-8-(2-{(cyclohexylmethyl)[(2S)-2,3-dihydroxypropanoyl]amino}ethyl)-8-azabicyclo[3.2.1]octan-3-yl]benzamide]
Tumor Size @ day 13, Mean ([1]; axelopran 1 mg/kg p.o. daily, mouse anti-PD-1 12.5 mg/kg i.p. 3×-weekly): 1,479 mm^3 | Survival, Median ([1]; axelopran 1 mg/kg, anti-PD-1): 13.0 days | Growth Rate, Mean ([1]; initial 8 days of treatments, axelopran 1 mg/kg p.o. daily, mouse anti-PD-1 12.5 mg/kg i.p.): 84.5 mm^3/day | interaction of axelopran activity with anti-PD-1 treatment ([1]; presence of a microbiome, colon cancer): synergistic | Breast cancer tumor progression index (tumor size × metastasis), Mean ([2]; 5 days of growth in the upper CAM, axelopran 1.0 mg/kg, pembrolizumab 2.5 mg/kg, bevacizumab 4 mg/kg): 0.63 fraction of negative control | interaction of axelopran activity with anti-PD-1 treatment ([2]; absence of a microbiome, breast cancer): additive | metastasis [2, 4]: inhibits metastasis | tumor growth [2, 4]: inhibits tumor growth | angiogenesis (HUVEC cell tube formation) [3]: inhibit angiogenesis
